What was measured:
JIYOYE = experiment: cells; format: functional, cell-based; conditions: Homo sapiens
Description: SANGER: Inhibition of human JiyoyeP-2003 cell growth in a cell viability assay.

8305C = experiment: cells; format: functional, cell-based; conditions: Homo sapiens
Description: SANGER: Inhibition of human 8305C cell growth in a cell viability assay.

NCI-H596 = experiment: cells; format: functional, cell-based; conditions: Homo sapiens;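 further: growth inhibition of NCI-H596 cells, read out with a cell viability assay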
Description: SANGER: Inhibition of human NCI-H596 cell growth in a cell viability assay.

Hs-578T = experiment: cells; format: functional, cell-based; conditions: Homo sapiens
Description: SANGER: Inhibition of human Hs-578-T cell growth in a cell viability assay.

Raji = experiment: cells; format: functional, cell-based; conditions: Homo sapiens;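 further: cell viability assay measuring inhibition of Raji cell growth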
Description: SANGER: Inhibition of human Raji cell growth in a cell viability assay.

DMS-273 = experiment: cells; format: functional, cell-based; conditions: Homo sapiens
Description: SANGER: Inhibition of human DMS-273 cell growth in a cell viability assay.

RERF-LC-MS = experiment: cells; format: functional, cell-based; conditions: Homo sapiens;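 further: growth inhibition of human RERF-LC-MS cells, read out by a cell viability assay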
Description: SANGER: Inhibition of human RERF-LC-MS cell growth in a cell viability assay.

NCI-H441 = experiment: cells; format: functional, cell-based; conditions: Homo sapiens;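 further: growth inhibition of NCI-H441 cells, read out with a cell viability assay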
Description: SANGER: Inhibition of human NCI-H441 cell growth in a cell viability assay.

A-431 = experiment: cells; format: functional, cell-based; conditions: Homo sapiens;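 further: growth inhibition of A-431 cells, determined with a cell viability read-out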
Description: SANGER: Inhibition of human A431 cell growth in a cell viability assay.

S-117 = experiment: cells; format: functional, cell-based; conditions: Homo sapiens
Description: SANGER: Inhibition of human S-117 cell growth in a cell viability assay.

NCI-H1963 = experiment: cells; format: functional, cell-based; conditions: Homo sapiens;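 further: cell growth inhibition of the human line, determined with a cell viability assay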
Description: SANGER: Inhibition of human NCI-H1963 cell growth in a cell viability assay.

SW837 = experiment: cells; format: functional, cell-based; conditions: Homo sapiens;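 further: growth inhibition of SW837 cells, determined with a cell viability assay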
Description: SANGER: Inhibition of human SW837 cell growth in a cell viability assay.

MDA-MB-415 = experiment: cells; format: functional, cell-based; conditions: Homo sapiens
5637 = experiment: cells; format: functional, cell-based; conditions: Homo sapiens
Description: SANGER: Inhibition of human 5637 cell growth in a cell viability assay.

H4 = experiment: cells; format: functional, cell-based; conditions: Homo sapiens
Description: SANGER: Inhibition of human H4 cell growth in a cell viability assay.

IGROV-1 = experiment: cells; format: functional, cell-based; conditions: Homo sapiens;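 further: reduction of IGROV-1 cell growth, read out with a viability assay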
Description: SANGER: Inhibition of human IGROV-1 cell growth in a cell viability assay.

LU-99A = experiment: cells; format: functional, cell-based; conditions: Homo sapiens;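 further: growth inhibition of LU-99A cells, read out with a cell viability assay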
Description: SANGER: Inhibition of human LU-99A cell growth in a cell viability assay.

CAL-33 = experiment: cells; format: functional, cell-based; conditions: Homo sapiens;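 further: growth inhibition of CAL-33 cells, read out with a cell viability assay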
Description: SANGER: Inhibition of human CAL-33 cell growth in a cell viability assay.

COR-L105 = experiment: cells; format: functional, cell-based; conditions: Homo sapiens
Description: SANGER: Inhibition of human COR-L105 cell growth in a cell viability assay.

DU-145 = experiment: cells; format: functional, cell-based; conditions: Homo sapiens
Description: SANGER: Inhibition of human DU-145 cell growth in a cell viability assay.

LK-2 = experiment: cells; format: functional, cell-based; conditions: Homo sapiens;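 further: growth inhibition of LK-2 cells, read out with a viability assay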
Description: SANGER: Inhibition of human LK-2 cell growth in a cell viability assay.

MKN-45 = experiment: cells; format: functional, cell-based; conditions: Homo sapiens;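 further: growth inhibition of human MKN-45 cells, measured with a cell viability assay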
Description: SANGER: Inhibition of human MKN45 cell growth in a cell viability assay.

SW1088 = experiment: cells; format: functional, cell-based; conditions: Homo sapiens;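 further: growth inhibition of human SW1088 cells, read out by a cell viability assay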
Description: SANGER: Inhibition of human SW1088 cell growth in a cell viability assay.

U-698-M = experiment: cells; format: functional, cell-based; conditions: Homo sapiens
Description: SANGER: Inhibition of human U-698-M cell growth in a cell viability assay.

SUP-T1 = experiment: cells; format: functional, cell-based; conditions: Homo sapiens;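 further: growth inhibition of human SUP-T1 cells, read out as cell viability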
Description: SANGER: Inhibition of human SUP-T1 cell growth in a cell viability assay.

MONO-MAC-6 = experiment: cells; format: functional, cell-based; conditions: Homo sapiens;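 further: cell viability assay measuring growth inhibition of human MONO-MAC-6 cells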
Description: SANGER: Inhibition of human MONO-MAC-6 cell growth in a cell viability assay.

MDA-MB-175-VII = experiment: cells; format: functional, cell-based; conditions: Homo sapiens
CAL-12T = experiment: cells; format: functional, cell-based, Homo sapiens; conditions: Homo sapiens, CAL-12T;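 further: growth inhibition of human CAL-12T cells, read out with a cell viability assay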
Description: SANGER: Inhibition of human CAL-12T cell growth in a cell viability assay.

BL-70 = experiment: SANGER: Inhibition of human BL-70 cell growth in a cell viability assay.; format: functional, cell-based
TE-441-T = experiment: cells; format: functional, cell-based; conditions: Homo sapiens
Description: SANGER: Inhibition of human TE-441-T cell growth in a cell viability assay.

A-427 = experiment: cells; format: functional, cell-based; conditions: Homo sapiens;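 further: growth inhibition of human A-427 cells, read out by a cell viability assay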
Description: SANGER: Inhibition of human A427 cell growth in a cell viability assay.

DK-MG = experiment: cells; format: functional, cell-based; conditions: Homo sapiens;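 further: growth inhibition of DK-MG cells, read out with a cell viability assay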
Description: SANGER: Inhibition of human DK-MG cell growth in a cell viability assay.

YAPC = experiment: cells; format: functional, cell-based; conditions: Homo sapiens;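 further: growth inhibition of YAPC cells, measured with a cell viability assay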
Description: SANGER: Inhibition of human YAPC cell growth in a cell viability assay.

NCI-H2087 = experiment: cells; format: functional, cell-based; conditions: Homo sapiens;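 further: growth inhibition determined with a cell viability readout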
Description: SANGER: Inhibition of human NCI-H2087 cell growth in a cell viability assay.

G-361 = experiment: cells; format: functional, cell-based; conditions: Homo sapiens
G-402 = experiment: cells; format: functional, cell-based; conditions: Homo sapiens
Description: SANGER: Inhibition of human G-402 cell growth in a cell viability assay.

C3A = experiment: cells; format: functional, cell-based; conditions: Homo sapiens;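 further: growth inhibition of C3A human cells, quantified with a cell viability readout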
Description: SANGER: Inhibition of human C3A cell growth in a cell viability assay.

HGC-27 = experiment: cells; format: functional, cell-based; conditions: Homo sapiens;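 further: growth inhibition of human HGC-27 cells, read out in a cell viability assay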
Description: SANGER: Inhibition of human HGC-27 cell growth in a cell viability assay.

A2780 = experiment: cells; format: functional, cell-based; conditions: Homo sapiens;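 further: growth inhibition of A2780 cells, read out with a cell viability assay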
Description: SANGER: Inhibition of human A2780 cell growth in a cell viability assay.

HT55 = experiment: cells; format: functional, cell-based; conditions: Homo sapiens;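 further: cell viability readout measuring growth inhibition of human HT55 cells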
Description: SANGER: Inhibition of human HT55 cell growth in a cell viability assay.

OE33 = experiment: cells; format: functional, cell-based; conditions: Homo sapiens;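 further: growth inhibition of human OE33 cells, measured by a cell viability assay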
Description: SANGER: Inhibition of human OE33 cell growth in a cell viability assay.

SAOS-2 = experiment: cells; format: functional, cell-based; conditions: Homo sapiens;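 further: growth inhibition of human Saos-2 cells determined by a cell viability assay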
Description: SANGER: Inhibition of human Saos-2 cell growth in a cell viability assay.

CHP-126 = experiment: cells; format: functional, cell-based; conditions: Homo sapiens
Description: SANGER: Inhibition of human CHP-126 cell growth in a cell viability assay.

LC-1F = experiment: cells; format: functional, cell-based; conditions: Homo sapiens;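 further: growth inhibition of human LC-1F cells, read out with a cell viability assay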
Description: SANGER: Inhibition of human LC-1F cell growth in a cell viability assay.

LB647-SCLC = experiment: cells; format: functional, cell-based; conditions: Homo sapiens;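 further: cell growth inhibition, read out by a viability assay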
Description: SANGER: Inhibition of human LB647-SCLC cell growth in a cell viability assay.

LC4-1 = experiment: cells; format: functional, cell-based; conditions: Homo sapiens;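 further: growth inhibition of LC4-1 cells, read out with a cell viability assay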
Description: SANGER: Inhibition of human LC4-1 cell growth in a cell viability assay.

HCC38 = experiment: cells; format: functional, cell-based; conditions: Homo sapiens;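 further: cell viability assay on the human HCC38 cell line, with IC50 marking the concentration that inhibits cell growth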
Description: SANGER: Inhibition of human HCC38 cell growth in a cell viability assay.

SNU-423 = experiment: cells; format: functional, cell-based; conditions: Homo sapiens
Description: SANGER: Inhibition of human SNU-423 cell growth in a cell viability assay.

MC-CAR = experiment: cells; format: functional, cell-based; conditions: Homo sapiens;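 further: growth inhibition of the human MC-CAR cell line, read out by a cell viability assay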
Description: SANGER: Inhibition of human MC-CAR cell growth in a cell viability assay.

U-251 = experiment: cells; format: functional, cell-based; conditions: Homo sapiens;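 further: growth inhibition of human U-251 cells, read out through a cell viability assay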
Description: SANGER: Inhibition of human U251 cell growth in a cell viability assay.

UO-31 = experiment: cells; format: functional, cell-based; conditions: Homo sapiens
Description: SANGER: Inhibition of human U031 cell growth in a cell viability assay.

HT-1080 = experiment: cells; format: functional, cell-based; conditions: Homo sapiens
Description: SANGER: Inhibition of human HT-1080 cell growth in a cell viability assay.

GDM-1 = experiment: cells; format: functional, cell-based; conditions: Homo sapiens;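 further: cell viability readout used to measure growth inhibition of human GDM-1 cells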
Description: SANGER: Inhibition of human GDM-1 cell growth in a cell viability assay.

CAPAN-1 = experiment: cells; format: functional, cell-based; conditions: Homo sapiens;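 further: growth suppression of CAPAN-1 cells, read out by a cell viability assay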
Description: SANGER: Inhibition of human CAPAN-1 cell growth in a cell viability assay.

SCC-4 = experiment: cells; format: functional, cell-based; conditions: Homo sapiens;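 further: growth inhibition of human SCC-4 cells, read out as cell viability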
Description: SANGER: Inhibition of human SCC-4 cell growth in a cell viability assay.

SK-MM-2 = experiment: cells; format: functional, cell-based; conditions: Homo sapiens;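 further: growth inhibition of human SK-MM-2 cells, read out with a cell viability assay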
Description: SANGER: Inhibition of human SK-MM-2 cell growth in a cell viability assay.

A 172 = experiment: cells; format: functional, cell-based; conditions: Homo sapiens;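 further: growth inhibition of A172 cells, measured with a cell viability readout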
Description: SANGER: Inhibition of human A172 cell growth in a cell viability assay.

MHH-CALL-2 = experiment: cells; format: functional, cell-based; conditions: Homo sapiens;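 further: growth inhibition of the cell line, read out in a cell viability assay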
Description: SANGER: Inhibition of human MHH-CALL-2 cell growth in a cell viability assay.

NCI-H661 = experiment: cells; format: functional, cell-based; conditions: Homo sapiens;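 further: cell viability assay read-out, IC50 being the concentration that inhibits growth of the cells by half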
Description: SANGER: Inhibition of human NCI-H661 cell growth in a cell viability assay.

ESS-1 = experiment: cells; format: functional, cell-based; conditions: Homo sapiens;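 further: growth inhibition of human ESS-1 cells, read out by a cell viability assay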
Description: SANGER: Inhibition of human ESS-1 cell growth in a cell viability assay.

NCI-H727 = experiment: cells; format: functional, cell-based; conditions: Homo sapiens;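 further: growth inhibition of human NCI-H727 cells, read out with a cell viability assay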
Description: SANGER: Inhibition of human NCI-H727 cell growth in a cell viability assay.

RT-112 = experiment: cells; format: functional, cell-based; conditions: Homo sapiens
Description: SANGER: Inhibition of human RT-112 cell growth in a cell viability assay.

EFM-19 = experiment: cells; format: functional, cell-based; conditions: Homo sapiens;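 further: growth inhibition of human EFM-19 cells, measured in a cell viability assay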
Description: SANGER: Inhibition of human EFM-19 cell growth in a cell viability assay.

CAL-120 = experiment: cells; format: functional, cell-based; conditions: Homo sapiens;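 further: cell growth inhibition, read out as cell viability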
Description: SANGER: Inhibition of human CAL-120 cell growth in a cell viability assay.

HOS = experiment: cells; format: functional, cell-based; conditions: Homo sapiens;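 further: growth inhibition of human HOS cells, read out with a cell viability assay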
Description: SANGER: Inhibition of human HOS cell growth in a cell viability assay.

Measured: IC50

C/C(O)=C(\C#N)C(=O)Nc1cc(Br)ccc1Br
> 16 µM: JIYOYE | 8305C | NCI-H596 | Hs-578T | Raji | DMS-273 | RERF-LC-MS | NCI-H441 | A-431 | S-117 | NCI-H1963 | SW837 | MDA-MB-415 | 5637 | H4 | IGROV-1 | LU-99A | CAL-33 | COR-L105 | DU-145 | LK-2 | MKN-45 | SW1088 | U-698-M | SUP-T1 | MONO-MAC-6 | MDA-MB-175-VII | CAL-12T | BL-70 | TE-441-T | A-427 | DK-MG | YAPC | NCI-H2087 | G-361 | G-402 | C3A | HGC-27 | A2780 | HT55 | OE33 | SAOS-2 | CHP-126 | LC-1F | LB647-SCLC | LC4-1 | HCC38 | SNU-423 | MC-CAR | U-251 | UO-31 | HT-1080 | GDM-1 | CAPAN-1 | SCC-4 | SK-MM-2 | A 172 | MHH-CALL-2 | NCI-H661 | ESS-1 | NCI-H727 | RT-112 | EFM-19 | CAL-120 | HOS
